According to US4764460A, “Recombinant sigma NS protein” (priority 1985, dated 1988):
Like-named read-outs stand apart in the source and are kept apart here.

Target: T1, rσNS (Reovirus type 3, UniProt P03526)
T1 construct: made in house; host or cells: E. coli RR1 (pRK248cIts) carrying pRC23-S3
Assay: Inhibition of binding of reovirus ssRNA to rσNS by ribonucleotides
Settings: for remaining activity at 10000 µM: ribonucleotide 10 mM
Procedure: In a preliminary experiment it was noticed that the capacity of rσNS to bind (ss) RNAs was abolished if all four ribonucleotides were included in the reaction mixture. The ability of each of the four ribonucleotides (ATP, CTP, GTP, and UTP) to inhibit binding was then examined. […] With the amount of rσNS used in these experiments (130 ng per reaction) GTP inhibition was evident between 0.5 mM and 1 mM (Table 3). The other three ribonucleotides caused little interference with binding even at concentrations of 10 mM (Table 3). This was an important observation for developing σNS as a concentrator of (ss) RNA in test samples to be used in hybridization probe assays. […] The isolated (ss) RNA can then be treated with the hybridization probe in a conventional manner. Obviously since the binding of the σNS protein with the (ss) RNA is non-specific, the specificity of the assay is fully determined by the specificity of the hybridization probe for the desired RNA being assayed.

[1] = read-out: % of [32P]-labeled reovirus ssRNA retained on nitrocellulose membrane, expressed as percentage of control, EXP. 1, ribonucleotide 2 mM (mixture 2 mM each), 130 ng rσNS per reaction
[2] = read-out: % of [32P]-labeled reovirus ssRNA retained on nitrocellulose membrane, expressed as percentage of control, EXP. 2

T1 sequence (P03526 whole entry): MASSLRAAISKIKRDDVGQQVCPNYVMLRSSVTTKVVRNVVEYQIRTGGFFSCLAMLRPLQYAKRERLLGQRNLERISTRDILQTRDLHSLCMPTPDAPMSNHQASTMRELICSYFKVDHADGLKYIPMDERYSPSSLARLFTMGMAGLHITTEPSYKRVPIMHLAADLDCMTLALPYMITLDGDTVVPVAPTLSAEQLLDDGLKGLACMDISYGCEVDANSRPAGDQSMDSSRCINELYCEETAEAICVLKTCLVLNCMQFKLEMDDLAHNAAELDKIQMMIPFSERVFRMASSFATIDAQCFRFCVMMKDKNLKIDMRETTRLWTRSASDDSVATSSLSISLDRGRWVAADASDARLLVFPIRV

Structure (SMILES): Nc1ncnc2c1ncn2[C@@H]1O[C@H](COP(=O)(O)OP(=O)(O)OP(=O)(O)O)[C@@H](O)[C@H]1O [ATP]
- remaining activity at 2000 µM [1]: 61%
- remaining activity at 10000 µM [2]: 95%

Structure (SMILES): Nc1nc2c(ncn2[C@@H]2O[C@H](COP(=O)(O)OP(=O)(O)OP(=O)(O)O)[C@@H](O)[C@H]2O)c(=O)[nH]1 [GTP]
- remaining activity at 2000 µM [1]: 5%
- remaining activity at 100 µM (read-out: % of [32P]-labeled reovirus ssRNA retained on nitrocellulose membrane, expressed as percentage of control, EXP. 2, ribonucleotide 0.1 mM): 93%
- remaining activity at 500 µM (read-out: % of [32P]-labeled reovirus ssRNA retained on nitrocellulose membrane, expressed as percentage of control, EXP. 2, ribonucleotide 0.5 mM): 95%
- remaining activity at 1000 µM (read-out: % of [32P]-labeled reovirus ssRNA retained on nitrocellulose membrane, expressed as percentage of control, EXP. 2, ribonucleotide 1 mM): 29%
- remaining activity at 2000 µM (read-out: % of [32P]-labeled reovirus ssRNA retained on nitrocellulose membrane, expressed as percentage of control, EXP. 2, ribonucleotide 2 mM): 15%
- remaining activity at 10000 µM [2]: 0%

Structure (SMILES): Nc1ccn([C@@H]2O[C@H](COP(=O)(O)OP(=O)(O)OP(=O)(O)O)[C@@H](O)[C@H]2O)c(=O)n1 [CTP]
- remaining activity at 2000 µM [1]: 58%
- remaining activity at 10000 µM [2]: 81%

Structure (SMILES): O=c1ccn([C@@H]2O[C@H](COP(=O)(O)OP(=O)(O)OP(=O)(O)O)[C@@H](O)[C@H]2O)c(=O)[nH]1 [UTP]
- remaining activity at 2000 µM [1]: 59%
- remaining activity at 10000 µM [2]: 68%
